Test results reported in patent US20180000085A1, “USE OF PICOLINAMIDE COMPOUNDS WITH FUNGICIDAL ACTIVITY” (DOW AGROSCIENCES LLC, priority 2014, published 2018).

What was measured:
Puccinia triticina = test: Wheat brown rust (PUCCRT) disease control on wheat seedlings; format: in vivo; details: for PUCCRT 1DP, LV activity at 125.1 g/H (% Control rating) / PUCCRT 3DC, LV activity at 125.1 g/H (% Control rating): low volume application; for PUCCRT 1DP, LV activity at 125.1 g/H (% Control rating) / PUCCRT 1DP, HV activity at 100 ppm (% control rating): 1 Day Protectant; for PUCCRT 3DC, LV activity at 125.1 g/H (% Control rating) / PUCCRT 3DC, HV activity at 100 ppm (% control rating): 3 Day Curative; for PUCCRT 1DP, HV activity at 100 ppm (% control rating) / PUCCRT 3DC, HV activity at 100 ppm (% control rating): HV application
Zymoseptoria tritici = test: Leaf blotch of wheat (SEPTTR) disease control on wheat seedlings; format: in vivo; set-up: key to SEPTTR 1DP, HV activity at 100 ppm (% control rating) / SEPTTR 3DC, HV activity at 100 ppm (% control rating) / SEPTTR disease control, 1DP / SEPTTR disease control, 3DC / SEPTTR 1DP disease control rating, HV activity / SEPTTR 3DC disease control rating, HV activity / SEPTTR 3DC, LV activity at 125.1 g/H (% Control rating) / SEPTTR 1DP, LV activity at 125.1 g/H (% Control rating) / SEPTTR 1DP disease control rating, LV activity at 125.1 g/H / SEPTTR 3DC disease control rating, LV activity at 125.1 g/H / SEPTTR 3DC disease control rating, HV activity at 100 ppm / SEPTTR 1DP disease control rating, HV activity at 100 ppm / HV activity at 100 ppm SEPTTR 3DC (disease control rating) / HV activity at 100 ppm SEPTTR 1DP (disease control rating) / LV activity at 125.1 g/H SEPTTR 1DP (disease control rating) / LV activity at 125.1 g/H SEPTTR 3DC (disease control rating): A: > 80; B: ≤ 80; C: Not Tested; D: No Activity Observed in the Reported Assay; details: for SEPTTR 1DP, LV activity at 125.1 g/H (% Control rating) / SEPTTR 3DC, LV activity at 125.1 g/H (% Control rating): low volume application; for SEPTTR 1DP, LV activity at 125.1 g/H (% Control rating) / SEPTTR 1DP, HV activity at 100 ppm (% control rating): 1 Day Protectant; for SEPTTR 3DC, LV activity at 125.1 g/H (% Control rating) / SEPTTR 3DC, HV activity at 100 ppm (% control rating): 3 Day Curative; for SEPTTR 1DP, HV activity at 100 ppm (% control rating) / SEPTTR 3DC, HV activity at 100 ppm (% control rating): HV application

| SMILES | PUCCRT 1DP, LV activity at 125.1 g/H (% Control rating) (Puccinia triticina) | PUCCRT 3DC, LV activity at 125.1 g/H (% Control rating) (Puccinia triticina) | SEPTTR 1DP, LV activity at 125.1 g/H (% Control rating) (Zymoseptoria tritici) | SEPTTR 3DC, LV activity at 125.1 g/H (% Control rating) (Zymoseptoria tritici) | PUCCRT 1DP, HV activity at 100 ppm (% control rating) (Puccinia triticina) | PUCCRT 3DC, HV activity at 100 ppm (% control rating) (Puccinia triticina) | SEPTTR 1DP, HV activity at 100 ppm (% control rating) (Zymoseptoria tritici) | SEPTTR 3DC, HV activity at 100 ppm (% control rating) (Zymoseptoria tritici) |
| --- | --- | --- | --- | --- | --- | --- | --- | --- |
| COc1ccnc(C(=O)N[C@@H](C)C(=O)O[C@@H](C)[C@H](Oc2ccc(Cl)cc2Cl)c2ccccc2)c1OC(C)=O [Cmpd 635] | A (> 80) | B (≤ 80) | A (> 80) | A (> 80) | – | – | – | – |
| COc1ccnc(C(=O)N[C@@H](C)C(=O)O[C@@H](C)[C@H](Oc2ccc(Cl)cc2)c2ccccc2)c1OCOC(C)=O [Cmpd 636] | A (> 80) | A (> 80) | A (> 80) | A (> 80) | – | – | – | – |
| COc1ccnc(C(=O)N[C@@H](C)C(=O)O[C@@H](C)[C@H](Oc2cccc(Cl)c2)c2ccccc2)c1OC(C)=O [Cmpd 638] | A (> 80) | B (≤ 80) | A (> 80) | A (> 80) | – | – | – | – |
| COc1ccnc(C(=O)N[C@@H](C)C(=O)O[C@@H](C)[C@H](Oc2cc(F)cc(Cl)c2)c2ccccc2)c1OCOC(C)=O [Cmpd 641] | A (> 80) | B (≤ 80) | A (> 80) | A (> 80) | – | – | – | – |
| CC[C@H](NC(=O)c1nccc(OC)c1OCOC(C)=O)C(=O)O[C@@H](C)[C@H](Oc1cc(F)cc(Cl)c1)c1ccccc1 [Cmpd 643] | A (> 80) | B (≤ 80) | A (> 80) | A (> 80) | – | – | – | – |
| CC[C@H](NC(=O)c1nccc(OC)c1OC(C)=O)C(=O)O[C@@H](C)[C@H](Oc1cc(F)cc(Cl)c1)c1ccccc1 [Cmpd 644] | A (> 80) | B (≤ 80) | A (> 80) | A (> 80) | – | – | – | – |
| CCC(CC)[C@@H](Oc1cccc(F)c1)[C@H](C)OC(=O)[C@@H](NC(=O)c1nccc(OC)c1OCOC(C)=O)C(C)C [Cmpd 645] | A (> 80) | A (> 80) | D | A (> 80) | A (> 80) | A (> 80) | A (> 80) | A (> 80) |
| CCC(CC)[C@@H](Oc1ccc(F)cc1)[C@H](C)OC(=O)[C@@H](NC(=O)c1nccc(OC)c1OCOC(C)=O)C(C)C [Cmpd 646] | A (> 80) | A (> 80) | B (≤ 80) | B (≤ 80) | A (> 80) | A (> 80) | A (> 80) | A (> 80) |
| CCC(CC)[C@@H](Oc1cccc(Cl)c1)[C@H](C)OC(=O)[C@@H](NC(=O)c1nccc(OC)c1OCOC(C)=O)C(C)C [Cmpd 647] | A (> 80) | B (≤ 80) | A (> 80) | B (≤ 80) | – | – | – | – |
| CCC(CC)[C@@H](Oc1ccc(Cl)cc1)[C@H](C)OC(=O)[C@@H](NC(=O)c1nccc(OC)c1OCOC(C)=O)C(C)C [Cmpd 648] | A (> 80) | B (≤ 80) | B (≤ 80) | A (> 80) | – | – | – | – |
| CCC(CC)[C@@H](Oc1ccc(Cl)cc1Cl)[C@H](C)OC(=O)[C@@H](NC(=O)c1nccc(OC)c1OCOC(C)=O)C(C)C [Cmpd 649] | A (> 80) | B (≤ 80) | D | D | – | – | – | – |
